According to publication PMC7253723, “Chain-End Modifications and Sequence Arrangements of Antimicrobial Peptoids for Mediating Activity and Nano-Assembly” (Frontiers in Chemistry, 2020):
Where “and” joins values, the source holds several entries; their conditions need not be identical. Identical values can stand only once. Like-named read-outs stand apart in the source and are kept apart here. Square brackets hold non-standard residues; d marks the D form. Peptide text beside a SMILES is read from it. * marks the point of attachment. N(1-naphthylmethyl)Gly = O=C(O)CNCc1cccc2ccccc12; N(4-MeBn)Gly = Cc1ccc(CNCC(=O)O)cc1; Palmitoyl = CCCCCCCCCCCCCCCC(=O)*; Nspe = C[C@H](NCC(=O)O)c1ccccc1; Lauroyl = CCCCCCCCCCCC(=O)*; Nonanoyl = CCCCCCCCC(=O)*; AEEA = NCCOCCOCC(=O)O; NBuGly = CCCCNCC(=O)O; Nlys = NCCCCNCC(=O)O

How the values were obtained:
[1] = tested on: Escherichia coli (ATCC 25922); assay type: cell-based
Experimental: (§1) Technical triplicates (n = 3) or more of samples at each concentration were analyzed.

[2] = tested on: Pseudomonas aeruginosa (PA01); assay type: cell-based
Experimental: as §1

[3] = tested on: Staphylococcus aureus (NCTC 4135); assay type: cell-based
Experimental: as §1

[4] = Critical aggregation concentration (CAC) Nile red fluorescence assay; assay type: physicochemical; details: room temperature
Experimental: Nile red (NR) fluorescence was used to measure critical aggregation concentration (CAC) for the synthesized lipopeptoids. Lipopeptoids were dissolved at 2.5 × 10^−2 to 1 wt.% in a dilute solution of Nile red (0.25 μg/100 mL, i.e. ~10 nM concentration) prepared in water. NR was excited at 552 nm and emission was recorded at room temperature in the range 550–750 nm using a 10.0 × 5.0 mm^2 quartz cell (Jasco spectrofluorimeter FP-6500). The intensity of the peak centered around 610 nm is shown in the data presented in Section results and discussion.
We first examined with a CAC assay whether coupling a hydrophobic tail to AMPMs and inserting the kk and EG2 components is a viable design for generating self-assembling lipopeptoids. The CAC measures the concentration above which hydrophobic pockets (e.g., lipophilic cores of micelles) are formed, and lower CACs indicate higher propensities of self-assembly. In our experiments, the CAC is indicated by an inflection in the increase in emission intensity of a lipophilic fluorophore tracer (Nile Red) that emits more strongly when partitioned into hydrophobic lower dielectric environments (see Figure S6 for an example analysis).

[5] = Analytical RP-HPLC elution (ACN %) as measure of hydrophobicity; assay type: physicochemical; details: chromatographic, C18 column (250 × 4.6 mm Nucleosil), 30 min gradient 5–95% ACN in water with 0.1% TFA, 1 mL/min, used as measure of hydrophobicity
Experimental: Peptoids were synthesized on resin manually or with an automated synthesizer (Prelude X, Gyros Protein Technologies) using a solid phase “submonomer” approach (Zuckermann et al., [1992]; Lau, [2014]; Lau et al., [2017]). Briefly, the Fmoc protected rink amide resin was deprotected with 20% piperidine for 20 min, applied twice. Each residue was added by treatment to a mixture of bromoacetic acid (20 times excess) and diisopropyl-carbodiimide (18.5 times excess) for 15 min, followed by a halo-substitution reaction with appropriate primary amine submonomers. For the attachment of a di ethylene glycol linker, Fmoc-amino-3,6 dioxaoctanoic acid (1.8 mmol), and equivalent moles of HBTU ((2-(1H-benzotriazol-1-yl)-1,1,3,3-tetramethyluronium hexafluorophosphate) were reacted with the terminal amino group in the presence of N,N-diisopropylethylamine (DIPEA, 2.7 mmol). This reaction was carried out for 2 h at 37°C and repeated a second time for 4 h, to ensure coupling. Like resin Fmoc deprotection, EG2 N-terminal Fmoc deprotection was achieved using 20% piperidine for 20 min, applied twice. Different chain lengths of saturated fatty acids, i.e., pelargonic acid (C8), lauric acid (C11), and palmitic acid (C15) were subsequently coupled using the HBTU amide coupling as reported previously (Lau et al., [2017]). After solid phase synthesis, the resin was cleaved and side chains were deprotected for 30 min using a standard TFA:TIPS:H2O cocktail (95:2.5:2.5 v/v/v). Excess TFA was removed using a rotary evaporator and the peptoid was precipitated from the oily product using diethyl ether. The collected material was dissolved in small amounts of 1:1 acetonitrile:water (ACN:H2O) to ease sample transfer, and further dried in a lyophilizer. Dried crude products were weighed and dissolved in ACN-H2O mixtures for preparative RP-HPLC (Dionex Ultimate 3000) with a C18 column (250 × 10 mm Phenomenex Jupiter). Fractions containing the pure product were identified by ESI-LC-MS (Agilent 1200 with a Poroshell C18 column coupled to an Agilent 6130 mass spectrometer) and by analytical RP-HPLC (Dionex P680) using a C18 column (250 × 4.6 mm “Nucleosil”) with a 30 min gradient of 5–95% acetonitrile (ACN) in water containing 0.1% TFA at 1 mL/min. The purified fractions of peptoids and lipopeptoids were later stored as aliquots at −20°C until further analysis.

[6] = Dynamic light scattering (DLS), hydrodynamic radius of nano-assemblies; assay type: physicochemical; details: 0.4 wt.% in deionized water, 0.22 μm filtered, 25°C, detection angle 90°
Experimental: DLS measurements were carried out at room temperature (25°C) using an ALV/LSE-5004 instrument equipped with He-Ne laser (λ = 632.8 nm) at a detection angle of θ = 90° (Lau et al., [2017]). Samples were prepared at a concentration of 0.4 wt.% in deionized water (DI) water and further filtered using 0.22 μm pore size surfactant-free cellulose acetate (SFCA) syringe filters (Sigma Aldrich, UK) to avoid particulate contamination.

[7] = Small angle X-ray scattering (SAXS), size of nano-assemblies; assay type: physicochemical; details: 1 wt.% peptoid solution, fitted
Experimental: SAXS experiments were performed on the bioSAXS beamline B21 at Diamond Light Source, U.K., using a previously established protocol (Castelletto et al., [2019]). Briefly, solutions containing 1 wt.% peptoid were loaded into a set of PCR tubes fitted in the 96-well plate of the BioSAXS robot. From there, the robot loaded the solutions into a quartz capillary perpendicularly placed in the path of the incident X-ray beam. SAXS data, collected using a Dectris PILATUS 2 M detector at a fixed camera length of 3.9 m, is presented as scattering intensity vs. q = 4π sinθ /λ (2θ: scattering angle; wavelength: λ = 1 Å). See Supplementary Information for description of SAXS data fitting.

[8] = Cryo-TEM, size of nano-assemblies; assay type: physicochemical; details: vitrified sample
Experimental: Sizes of selected lipopeptoid nano-assemblies were verified using a field emission cryo-electron microscope (JEOL JEM3200FSC), operating at 200 kV and at −187°C, configured in bright field mode and zero loss energy filtering (omega type) with a slit width of 20 eV. Sizes of selected lipopeptoids nano-assemblies were measured from photographs recorded using a Gatan Ultrascan 4000 CCD camera. Vitrified specimens were prepared on Quantifoil 3.5/1 holey carbon copper grids (hole size of 3.5 μm). The grids were first plasma cleaned using a Gatan Solarus 9500 plasma cleaner and then transferred into the environmental chamber of an automated FEI Vitrobot device at room temperature and 100% humidity. Thereafter, 3 μL of the sample solution was applied on the grid, which was blotted twice for 5 s and then vitrified in a 1:1 mixture of liquid ethane and propane at a temperature of −180°C. The grids with vitrified sample solution were maintained at liquid nitrogen temperature and then cryo-transferred to the microscope.

[9] = Nile red fluorescence (~10 nM NR in water), lipopeptoids 2.5 × 10^-2 to 1 wt.%, excitation 552 nm, peak around 610 nm, inflection in emission intensity
[10] = MH broth microdilution (CLSI M07-A10), ~5 × 10^5 CFU/mL, overnight 37°C, OD 600 nm, MIC = concentration with OD halfway between minimum and maximum, sigmoidal fit ± SD, n = 3 or more, maximum tested 100 μM
[11] = PA01, MH broth microdilution (CLSI M07-A10), ~5 × 10^5 CFU/mL, overnight 37°C, OD 600 nm, MIC = concentration with OD halfway between minimum and maximum, sigmoidal fit ± SD, n = 3 or more, maximum tested 100 μM

Row | Compound | CAC [4, 9] | elution ACN % (RP-HPLC retention) [5] | Antimicrobial activity (MIC) E. coli [1, 10] | Antimicrobial activity (MIC) P. aeruginosa [2, 11] | Antimicrobial activity (MIC) S. aureus [3, 10] | other results
1 | CCCCCCCCCCCCCCCC(=O)NCCOCCOCC(=O)N(CCCCN)CC(=O)N(CC(=O)N(CC(=O)N(CCCCN)CC(=O)N(CC(=O)N(CC(=O)N(CCCCN)CC(=O)N(CC(=O)N(CC(=O)N(CCCCN)CC(=O)N(CC(=O)N(CC(=O)N(CCCCN)CC(=O)N(CCCCN)CC(N)=O)[C@@H](C)c1ccccc1)[C@@H](C)c1ccccc1)[C@@H](C)c1ccccc1)[C@@H](C)c1ccccc1)[C@@H](C)c1ccccc1)[C@@H](C)c1ccccc1)[C@@H](C)c1ccccc1)[C@@H](C)c1ccccc1 [C15-EG2-(kss)4-kk] ({Palmitoyl-AEEA}-[Nlys][Nspe][Nspe][Nlys][Nspe][Nspe][Nlys][Nspe][Nspe][Nlys][Nspe][Nspe][Nlys][Nlys]-NH2) |  |  |  |  |  | Antimicrobial activity (MIC) E. coli [1]: 44 ± 5 µM; Antimicrobial activity (MIC) P. aeruginosa [2]: >100 µM; Antimicrobial activity (MIC) S. aureus [3]: 36 ± 5 µM; Hydrodynamic radius RH (DLS): 45 nm
2 | CCCCCCCCCCCC(=O)NCCOCCOCC(=O)N(CCCCN)CC(=O)N(CC(=O)N(CC(=O)N(CCCCN)CC(=O)N(CC(=O)N(CC(=O)N(CCCCN)CC(=O)N(CCCCN)CC(N)=O)[C@@H](C)c1ccccc1)[C@@H](C)c1ccccc1)[C@@H](C)c1ccccc1)[C@@H](C)c1ccccc1 [C11-EG2-(kss)2-kk] ({Lauroyl-AEEA}-[Nlys][Nspe][Nspe][Nlys][Nspe][Nspe][Nlys][Nlys]-NH2) | 198 µM and 200 ± 17 µM | 52 ACN % |  |  |  | 
3 | CCCCCCCCCCCCCCCC(=O)N(CCCCN)CC(=O)N(CC(=O)N(CC(=O)N(CCCCN)CC(=O)N(CC(=O)N(CC(=O)N(CCCCN)CC(=O)N(CC(=O)N(CC(=O)N(CCCCN)CC(=O)N(CC(=O)N(CC(=O)N(CCCCN)CC(=O)N(CCCCN)CC(N)=O)[C@@H](C)c1ccccc1)[C@@H](C)c1ccccc1)[C@@H](C)c1ccccc1)[C@@H](C)c1ccccc1)[C@@H](C)c1ccccc1)[C@@H](C)c1ccccc1)[C@@H](C)c1ccccc1)[C@@H](C)c1ccccc1 [C15-(kss)4-kk] (Palmitoyl-[Nlys][Nspe][Nspe][Nlys][Nspe][Nspe][Nlys][Nspe][Nspe][Nlys][Nspe][Nspe][Nlys][Nlys]-NH2) | 304 µM and 300 ± 25 µM | 66 ACN % |  |  |  | 
4 | CCCCCCCCCCCCCCCC(=O)NCCOCCOCC(=O)N(CCCCN)CC(=O)N(CC(=O)N(CC(=O)N(CCCCN)CC(=O)N(CC(=O)N(CC(=O)N(CCCCN)CC(=O)N(CC(=O)N(CC(=O)N(CCCCN)CC(=O)N(CC(=O)N(CC(N)=O)[C@@H](C)c1ccccc1)[C@@H](C)c1ccccc1)[C@@H](C)c1ccccc1)[C@@H](C)c1ccccc1)[C@@H](C)c1ccccc1)[C@@H](C)c1ccccc1)[C@@H](C)c1ccccc1)[C@@H](C)c1ccccc1 [C15-EG2-(kss)4] ({Palmitoyl-AEEA}-[Nlys][Nspe][Nspe][Nlys][Nspe][Nspe][Nlys][Nspe][Nspe][Nlys][Nspe][Nspe]-NH2) | 38 µM and 38 ± 3 µM | 82 ACN % |  |  |  | CAC ([4]; Nile red fluorescence in water, CAC expressed in wt.%): 0.0075 wt.%; hydrodynamic radius (RH) [6]: ca. 50 nm; radius of nano-assemblies (SAXS) [7]: 24 ± 5 nm; diameter of smallest non-compact aggregates (TEM) [8]: ca. 5 nm
5 | CCCCCCCCC(=O)NCCOCCOCC(=O)N(CC(=O)N(CCCCN)CC(=O)N(CC(=O)N(CCCCN)CC(=O)N(CC(=O)N(CCCCN)CC(=O)N(CCCC)CC(=O)N(CCCCN)CC(N)=O)Cc1cccc2ccccc12)Cc1ccc(C)cc1)Cc1cccc2ccccc12 [C8-EG2-kykbk] ({Nonanoyl-AEEA}-[N(1-naphthylmethyl)Gly][Nlys][N(4-MeBn)Gly][Nlys][N(1-naphthylmethyl)Gly][Nlys][NBuGly][Nlys]-NH2) | 1900 ± 200 µM |  | 11 ± 4 µM | 15 ± 3 µM | 2 ± 0.2 µM | 
6 | CCCCCCCCCCCC(=O)NCCOCCOCC(=O)N(CCCCN)CC(=O)N(CC(=O)N(CC(=O)N(CCCCN)CC(=O)N(CC(=O)N(CC(=O)N(CCCCN)CC(=O)N(CC(=O)N(CC(=O)N(CCCCN)CC(=O)N(CCCCN)CC(N)=O)[C@@H](C)c1ccccc1)[C@@H](C)c1ccccc1)[C@@H](C)c1ccccc1)[C@@H](C)c1ccccc1)[C@@H](C)c1ccccc1)[C@@H](C)c1ccccc1 [C11-EG2-(kss)3-kk] ({Lauroyl-AEEA}-[Nlys][Nspe][Nspe][Nlys][Nspe][Nspe][Nlys][Nspe][Nspe][Nlys][Nlys]-NH2) | 310 ± 38 µM | 54 ACN % | 3 ± 0.2 µM | 15 ± 0.4 µM | 1 ± 0.1 µM | CAC ([4]; Nile red fluorescence in water, CAC expressed in mg/mL): 0.52 mg/mL
